Laboratory results as given in ChEMBL document CHEMBL3779811, “A new dammarane-type saponin from Gynostemma pentaphyllum induces apoptosis in A549 human lung carcinoma cells” (Bioorg Med Chem Lett, 2016).
Values after ≈ are worked out from the molar mass of the structure shown. Active and inactive are the calls of the source. The rule behind the calls is not given here.

Tests used:
A549 [1] = experiment: Cytotoxicity against human A549 cells assessed as decrease in viable cells after 48 hrs by CCK-8 assay; assay type: functional, cell-based; details: for IC50: A549, 48 h
A549 [2] = experiment: Cytotoxicity against human A549 cells assessed as decrease in viable cells at 60 ug/mL after 48 hrs by CCK-8 assay; assay type: functional
A549 [3] = experiment: Induction of apoptosis in human A549 cells assessed as increase in detached cells at 50 ug/ml after 48 hrs by inverted microscopy; assay type: functional, cell-based
A549 [4] = experiment: Induction of apoptosis in human A549 cells assessed as necrotic cells at 50 ug/mL after 48 hrs by Annexin V-FITC/propidium iodide staining based flow cytometry (reference value: 0.59 %); assay type: functional
A549 [5] = experiment: Induction of apoptosis in human A549 cells assessed as chromatin condensation at 50 ug/mL after 48 hrs by Hoechst-33258 staining based fluorescence microscopy; assay type: functional, cell-based
A549 [6] = experiment: Induction of apoptosis in human A549 cells assessed as early apoptotic cells at 50 ug/mL after 48 hrs by Annexin V-FITC/propidium iodide staining based flow cytometry (reference value: 4.57 %); assay type: functional
A549 [7] = experiment: Induction of apoptosis in human A549 cells assessed as round and shrunken cells at 50 ug/mL after 48 hrs by inverted microscopy; assay type: functional, cell-based
A549 [8] = experiment: Induction of apoptosis in human A549 cells assessed as loss of mitochondrial membrane potential by measuring ratio of red to green fluorescence at 50 ug/ml after 48 hrs by JC-1 staining based flow cytometry (reference value: 28.9); assay type: functional
A549 [9] = experiment: Induction of apoptosis in human A549 cells assessed as mitochondrial depolarization at 50 ug/ml after 48 hrs by JC-1 staining based fluorescence microscopy; assay type: functional, cell-based
A549 [10] = experiment: Induction of apoptosis in human A549 cells assessed as late apoptotic cells at 50 ug/mL after 48 hrs by Annexin V-FITC/propidium iodide staining based flow cytometry (reference value: 3.38 %); assay type: functional
A549 [11] = experiment: Induction of apoptosis in human A549 cells assessed as mitochondrial membrane potential at 50 ug/ml after 48 hrs by JC-1 staining based flow cytometry (reference value: 96.66%); assay type: functional
A549 [12] = experiment: Induction of apoptosis in human A549 cells assessed as viable cells at 50 ug/mL after 48 hrs by Annexin V-FITC/propidium iodide staining based flow cytometry (reference value: 91.46 %); assay type: functional; details: A549, 48 h, read-out: Activity

SMILES	IC50 (A549 [1]) [µg/mL]	Activity (A549 [2]) [%]	Activity (A549 [1])	also measured
CC(C)=CCC[C@@](C)(O[C@@H]1O[C@H](CO)[C@@H](O)[C@H](O)[C@H]1O)[C@@H]1CC[C@@]2(C)[C@H]1[C@@H](O)C[C@H]1[C@]3(C)C[C@H](O)[C@@H](O[C@H]4O[C@@H](CO)[C@H](O)[C@@H](O)[C@@H]4O[C@H]4O[C@@H](CO)[C@H](O)[C@@H](O)[C@@H]4O)C(C)(C)[C@H]3CC[C@@]12C	112 (≈ 116 µM)	–	–	–
CC(C)=CCC[C@](C)(O)[C@H]1CC[C@]2(C)[C@@H]1[C@H](O)C[C@@H]1[C@@]3(C)C[C@@H](O)[C@H](O[C@@H]4O[C@H](CO)[C@@H](O)[C@H](O)[C@H]4O[C@@H]4O[C@H](CO)[C@@H](O)[C@H](O)[C@H]4O)C(C)(C)[C@@H]3CC[C@]12C	78.6 (≈ 98.1 µM)	37.2	Dose-dependent effect	–
CC(C)=CCC[C@](C)(O)[C@@H]1CC[C@@]2(C)[C@H]1[C@@H](O)C[C@H]1[C@]3(C)C[C@H](O)[C@@H](O[C@H]4O[C@@H](CO)[C@H](O)[C@@H](O)[C@@H]4O)C(C)(C)[C@H]3CC[C@@]12C	74.3 (≈ 116 µM)	44.7	Dose-dependent effect	Activity (A549 [3]): Active; Activity (A549 [4]): 1.44%; Activity (A549 [5]): Active; Activity (A549 [6]): 14.34%; Activity (A549 [7]): Active; Ratio (A549 [8]): 8.7; Activity (A549 [9]): Active; Activity (A549 [10]): 2.74%; Activity (A549 [11]): 89.64%; viability at 50 µg/mL (A549 [12]): 81.5%
C=C(CCC=C(C)C)[C@H]1CC[C@]2(C)[C@@H]1[C@H](O)C[C@@H]1[C@@]3(C)C[C@@H](O)[C@H](O[C@@H]4O[C@H](CO)[C@@H](O)[C@H](O)[C@H]4O[C@@H]4O[C@H](CO)[C@@H](O)[C@H](O)[C@H]4O)C(C)(C)[C@@H]3CC[C@]12C [DAMULIN B]	23.8 (≈ 30.4 µM)	–	–	–
CC(C)=CC/C=C(/C)[C@H]1CC[C@]2(C)[C@@H]1[C@H](O)C[C@@H]1[C@@]3(C)C[C@@H](O)[C@H](O[C@@H]4O[C@H](CO)[C@@H](O)[C@H](O)[C@H]4O[C@@H]4O[C@H](CO)[C@@H](O)[C@H](O)[C@H]4O)C(C)(C)[C@@H]3CC[C@]12C	29 (≈ 37 µM)	–	–	–
CC(C)=CCC[C@@](C)(O[C@@H]1O[C@H](CO[C@H]2OC[C@H](O)[C@@H](O)[C@@H]2O)[C@@H](O)[C@H](O)[C@H]1O)[C@@H]1CC[C@@]2(C)[C@H]1[C@@H](O)C[C@H]1[C@]3(C)C[C@H](O)[C@@H](O[C@H]4O[C@@H](CO)[C@H](O)[C@@H](O)[C@@H]4O[C@H]4O[C@@H](CO)[C@H](O)[C@@H](O)[C@@H]4O)C(C)(C)[C@H]3CC[C@@]12C	168 (≈ 153 µM)	–	–	–
CC(C)=CCC[C@@](C)(O)[C@H]1CC[C@]2(C)[C@@H]1[C@H](O)C[C@@H]1[C@@]3(C)C[C@@H](O)[C@H](O[C@@H]4O[C@H](CO)[C@@H](O)[C@H](O)[C@H]4O[C@@H]4O[C@H](CO)[C@@H](O)[C@H](O)[C@H]4O)C(C)(C)[C@@H]3CC[C@]12C	91 (≈ 114 µM)	30	Dose-dependent effect	–
CC(=O)OC[C@H]1O[C@@H](O[C@H]2[C@H](O[C@H]3[C@H](O)C[C@]4(C)[C@H]5C[C@@H](O)[C@@H]6[C@@H](/C(C)=C\CC=C(C)C)CC[C@@]6(C)[C@]5(C)CC[C@H]4C3(C)C)O[C@H](CO)[C@@H](O)[C@@H]2O)[C@H](O)[C@@H](O)[C@@H]1O	61.2 (≈ 74.2 µM)	–	–	–
C=C(CCC=C(C)C)[C@H]1CC[C@]2(C)[C@@H]1[C@H](O)C[C@@H]1[C@@]3(C)C[C@@H](O)[C@H](O[C@@H]4O[C@H](CO)[C@@H](O)[C@H](O)[C@H]4O[C@@H]4O[C@H](COC(C)=O)[C@@H](O)[C@H](O)[C@H]4O)C(C)(C)[C@@H]3CC[C@]12C	40.4 (≈ 49 µM)	–	–	–
